# Experimental data from ChEMBL document CHEMBL1275550, “In vitro activity of doripenem, a carbapenem for the treatment of challenging infections caused by gram-negative bacteria, against recent clinical isolates from the United States” (2008).
# Assays:
# Assay type in all cases: functional
# [1] = system: Streptococcus pneumoniae; assay: Antimicrobial activity against penicillin-resistant Streptococcus pneumoniae assessed as resistant isolate by broth microdilution method
# [2] = system: Staphylococcus aureus; assay: Antimicrobial activity against methicillin-susceptible Staphylococcus aureus assessed as susceptible isolate by broth microdilution method
# [3] = system: Staphylococcus; assay: Antimicrobial activity against methicillin-susceptible coagulase-negative Staphylococcus by broth microdilution method
# [4] = system: Streptococcus pneumoniae; assay: Antimicrobial activity against […] assessed as susceptible isolate by broth microdilution method
# [5] = system: Streptococcus pneumoniae; assay: Antimicrobial activity against penicillin-resistant Streptococcus pneumoniae by broth microdilution method
# [6] = system: Streptococcus pneumoniae; assay: Antimicrobial activity against penicillin-intermediate Streptococcus pneumoniae assessed as intermediate isolate by broth microdilution method
# [7] = system: Streptococcus pneumoniae; assay: Antimicrobial activity against penicillin-susceptible Streptococcus pneumoniae by broth microdilution method
# [8] = system: Staphylococcus; assay: Antimicrobial activity against methicillin-susceptible coagulase-negative Staphylococcus assessed as susceptible isolate by broth microdilution method
# [9] = system: Staphylococcus aureus; assay: Antimicrobial activity against methicillin-susceptible Staphylococcus aureus by broth microdilution method
# [10] = Streptococcus pneumoniae, read-out: MIC90
compound,measurement,setting,value
C[C@@H](O)[C@H]1C(=O)N2C(C(=O)O)=C(S[C@@H]3CN[C@H](C(=O)Nc4cccc(C(=O)O)c4)C3)[C@H](C)[C@H]12,Activity,[1],39.6%
same,Activity,[2],99.4%
same,MIC90,[3],0.5 µg/mL
same,MIC90,"[3]; Staphylococcus, read-out: MIC90",0.25 µg/mL
same,Activity,[4],100%
same,MIC90,[5],2 µg/mL
same,MIC90,[5]; [10],2 µg/mL
same,Activity,[6],94.5%
same,MIC90,[7],0.03 µg/mL
same,MIC90,[7]; [10],0.03 µg/mL
same,Activity,[8],99.4%
same,MIC90,[9],0.5 µg/mL
same,MIC90,"[9]; Staphylococcus aureus, read-out: MIC90",0.25 µg/mL
